# In patent US10881623B2, “Compositions for the management of hyperglycemia and related conditions” (SAMI LABS LIMITED, priority 2017, dated 2021):
# Key:
# α-glucosidase = target: T1, α-glucosidase (Saccharomyces cerevisiae, UniProt P53341); assay: α-glucosidase inhibition (paranitrophenyl-α-d-glucopyranoside substrate); type: biochemical; details: enzyme 0.15 U/ml, substrate 1.25 mM, absorbance 405 nm
# T1 construct: purchased Sigma-Aldrich G5003
# Protocol: For glucosidase inhibition, α-glucosidase (Code G5003; Sigma-Aldrich, St. Louis, Mo., USA) was dissolved in 67 mM potassium phosphate buffer, pH 6.8, containing 8 containing 0.2% Bovine Serum Albumin (Sigma-Aldrich) & 0.02% sodium azide (Sigma-Aldrich) which was used as enzyme source. Paranitrophenyl-α-d-glucopyranoside (Sigma-Aldrich) was used as substrate. Thymoquinone, thymohydroquinone and composition containing thymohydroquinone were weighed prepared at concentration of 63, 125, 250 and 500 μg/ml and were made up with equal volumes of distilled water. 50 μl of said composition was incubated for 5 min with 50 μl enzyme source (0.15 U/ml). After incubation, 50 μl of substrate (1.25 mM) was added and further incubated for 20 min at room temperature. Presubstrate and post-substrate addition, absorbance was measured at 405 nm on a microplate reader (BMG FLUOstar OPTIMA Microplate Reader). The increase in absorbance on substrate addition was obtained. Each test was performed three times and the mean absorption was used to calculate percentage α-glucosidase inhibition. Acarbose was used as positive control with various concentrations. The inhibitory activities of varying concentrations of said composition were expressed as 100 minus the absorbance difference (%) of the said composition relative to the absorbance change of the negative control (i.e., water used as the test solution). […]
# [1] = tested on: Muscle cells (C2C12 myotubes); assay: Glucose uptake (2-NBDG, flow cytometry) in differentiated C2C12 myotubes; type: cell-based; details: compared to thymoquinone; FIG. 2
# Protocol: The skeletal muscle cell line C2C12 myoblasts (procured from ATCC) were maintained in DMEM supplemented with 10% Fetal Bovine Serum at 37° C. with 5% CO2. Twenty thousand cells per well were seeded in a 24 well plate. When the cells reached 80-90% confluence, differentiation was induced by replacing the growth medium with DMEM containing 1% horse serum. Experiments were performed in completely differentiated C2C12 myotubes after 4-5 days in differentiation medium. Cells were then treated with 0.5% BSA in low glucose media for 16 hours and washed with cold Krebs-Ringer phosphate buffer without glucose. Cells were then treated with different non cytotoxic concentrations of samples in low glucose DMEM media with or without insulin at a concentration of 0.1 μM for 30 minutes at 37° C. Cells were then washed with cold PBS and stained with 5 μM of a fluorescent D-glucose analog 2-[N-(7-nitrobenz-2-oxa-1,3-diazol-4-yl) amino]-2-deoxy-D-glucose (2-NBDG) for 15 minutes in dark followed by flow cytometric detection of fluorescence produced by the cells.
# Adipocytes = assay: Glucose uptake in adipocytes; type: cell-based; details: compared to thymoquinone; FIG. 2
# [2] = DPPH radical scavenging assay; details: concentration reducing DPPH absorbance by 50%
# Protocol: DPPH is a stable free radical in a methanolic solution with an absorbance at 520 nm. If the free radicals are scavenged by an anti oxidant molecule, the resulting solution appears yellow. The hydrogen atoms or electrons donation ability of the extracellular metabolite was measured by the bleaching of purple coloured DPPH methanol solution.
# Thymoquinone, Thymohydroquinone and the composition comprising thymohydroquinone were prepared in varying concentrations. For the DPPH radical scavenging assay, 20 μL of test material was mixed with 180 μL of DPPH in methanol in a 96 well plate following the method as described earlier (Clarke et al., 2013). The plate was kept in the dark for 15 min, after which the absorbance of the solution was measured at 540 nm using a microplate reader (TECAN Ltd, Männedorf, Switzerland). Blanks (DMSO, methanol) and standard (Trolox solution in DMSO) were recorded simultaneously. The extracts were screened with variable concentrations to establish the inhibition concentration (IC50, the concentration reducing DPPH absorbance by 50%).
# The free radical scavenging activity was calculated as follows,
# Where, • B=Absorbance of reference solution (OD of DPPH) • C=Absorbance of reference solution, blank (OD of Methanol only) • S=Absorbance of test solution • […]
# TNF-α = TNF-α secretion by LPS-stimulated THP-1 cells (ELISA); type: cell-based, human; details: for inhibition at 0.03 µg/mL / inhibition at 0.06 µg/mL / inhibition at 0.13 µg/mL: Homo sapiens, THP-1, LPS 0.1 μg/mL, 24 hour; for inhibition at 0.03 µg/mL: 0.03 μg/mL; for inhibition at 0.06 µg/mL: 0.06 μg/mL; for inhibition at 0.13 µg/mL: 0.13 μg/mL
# Protocol: Cells: THP1-human monocytes purchased from American Type Culture Collection (ATCC, Manassas, Va.) and maintained as a monolayer culture in Rosewell park memorial institute Medium (RMPI Life technologies, CA, USA.) supplemented with 10% (v/v) heat-inactivated foetal bovine serum (FBS; GIBCO/Invitrogen, Carlsbad, Calif.), 100 units/mL penicillin and 100 μg/mL streptomycin (Life technologies) at 37° C. in a humidified 5% CO2 incubator.
# Reagents and buffers: Lipopolysaccharide (LPS, Sigma chemicals, USA), Phosphate buffered saline, RPMI, FBS
# ELISA kit: Human TNF ELISA kit, Krishgen Biosciences, USA
# Anti inflammatory activity was examined using human monocyte/macrophage cell line THP-Monocytes respond to lipopolysaccharides (LPS) by secreting proinflammatory cytokines. Tumour necrosis factor (TNF-α) is one of the principle cytokine which triggers a cascade of inflammatory reactions. The concentration of TNF-α was measured using an Enzyme linked Immunosorbent assay (ELISA). Reduction in TNF-α concentration indicates an anti inflammatory activity of the compound.
# 1×10^5 THP-1 cells were stimulated with 100 ng with lipopolysacharide (LPS, 0.1 μg/mL) to induce TNF-α secretion. Cells were pre treated with different concentrations of test materials (Thymoquinone, thymohydroquinone and a composition comprising thymohydroquinone) before LPS treatment. The cell supernatants were collected 24 hour after treatment and secreted TNF-α as estimated by cytokine ELISA as described by the manufacturer. Unstimulated cells were used as negative control. The limit of detection was <1 pg/mL.
# [3] = Anti-glycation, Ribose-BSA method, vesperlysine-like AGE
# Protocol: (§1) AGEs can be fluorescent as well as non fluorescent in nature. Typically the vesperlysine type of AGE have an excitation at 370-nm and emission at 440 nm, while pentosidine like AGE have an excitation at 335 nm and emission at 385 nm. The principle is based on the fact that ribose sugar and bovine serum albumin are mixed in specific ratio and incubated for 24 hours. Vesperlysine like AGE formed by the reaction was e estimated by the increase in fluorescence detected, at Ex/Em at 390/460 nm and pentosidines were detected at Ex/Em at 320/405 nm
# (§2) Ribose—BSA method: 10 μl of various concentrations of samples were added to 40 μl of BSA (bovine serum albumin, 25 mg/ml stock) and 50 μl of D-Ribose (150 mg/ml stock) was added per well of black 96-well microplate and incubated for 24 h at 37° C. BSA was taken as the control. The AGEs (advanced glycation end product) formed were detected by the fluorescence at Ex/Em at 390/460 nm for vesperlysine and Ex/Em at 320/405 nm for pentosidine AGE.
# [4] = Anti-glycation, Ribose-BSA method, pentosidine AGE
# Protocol: as §1, §2
# T1 sequence (P53341 whole entry): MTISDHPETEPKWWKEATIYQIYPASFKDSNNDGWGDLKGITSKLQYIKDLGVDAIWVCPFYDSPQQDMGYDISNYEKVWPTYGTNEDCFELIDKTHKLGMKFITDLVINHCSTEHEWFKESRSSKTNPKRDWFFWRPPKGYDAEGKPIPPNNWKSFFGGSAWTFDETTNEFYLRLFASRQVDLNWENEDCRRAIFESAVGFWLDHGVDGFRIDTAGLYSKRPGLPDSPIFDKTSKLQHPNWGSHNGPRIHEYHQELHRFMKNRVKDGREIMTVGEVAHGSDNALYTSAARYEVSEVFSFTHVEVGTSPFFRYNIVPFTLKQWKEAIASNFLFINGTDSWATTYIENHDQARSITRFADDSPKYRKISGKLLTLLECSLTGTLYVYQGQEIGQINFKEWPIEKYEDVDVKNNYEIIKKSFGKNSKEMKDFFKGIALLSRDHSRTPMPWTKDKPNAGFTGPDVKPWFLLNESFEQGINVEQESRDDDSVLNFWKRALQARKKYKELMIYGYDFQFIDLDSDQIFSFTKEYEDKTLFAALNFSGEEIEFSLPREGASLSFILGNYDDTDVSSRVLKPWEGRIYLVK
IC50 of DPPH scavenging [2] [µg/mL],SMILES,IC50 (α-glucosidase) [µM],glucose uptake in Muscle cells [1],glucose uptake in Adipocytes (Adipocytes),inhibition at 0.03 µg/mL (TNF-α) [%],inhibition at 0.06 µg/mL (TNF-α) [%],inhibition at 0.13 µg/mL (TNF-α) [%],cell viability (TNF-α; THP-1 cells in the TNF-α test),"IC50, inhibition of vesperlysine Ex/Em at 390/460 nM [3] [µg/mL]",% inhibition of vesperlysine Ex/Em at 390/460 nm ([3]; 15.63 μg/mL) [%],% inhibition of vesperlysine Ex/Em at 390/460 nm ([3]; 31.25 μg/mL) [%],% inhibition of vesperlysine Ex/Em at 390/460 nm ([3]; 62.5 μg/mL) [%],% inhibition of vesperlysine Ex/Em at 390/460 nm ([3]; 125 μg/mL) [%],% inhibition of vesperlysine Ex/Em at 390/460 nm ([3]; 250 μg/mL) [%],"IC50, Inhibition of pentosidine Ex/Em at 320/405 nM [4] [µg/mL]",% Inhibition of pentosidine Ex/Em at 320/405 nm ([4]; 15.63 μg/mL) [%],% Inhibition of pentosidine Ex/Em at 320/405 nm ([4]; 31.25 μg/mL) [%],% Inhibition of pentosidine Ex/Em at 320/405 nm ([4]; 62.5 μg/mL) [%],% Inhibition of pentosidine Ex/Em at 320/405 nm ([4]; 125 μg/mL) [%],% Inhibition of pentosidine Ex/Em at 320/405 nm ([4]; 250 μg/mL) [%]
1.78,"Cc1cc(O)c(C(C)C)cc1O [Thymohydroquinone, thymohydroquinone]",433,enhanced glucose uptake,enhanced glucose uptake,2.5,4.5,11.9,without affecting the cell viability,108.30,23.03,34.06,43.83,52.28,60.42,65.89,5.39,28.73,49.55,68.33,89.31
,"CC1=CC(=O)C(C(C)C)=CC1=O [Thymoquinone, thymoquinone, reference compound]",2480,,,22,31,35,,157.80,0,38.55,40.81,44.54,56.69,142.70,0,23.59,0.06,44.57,61.80
